Source: patent US10501479B2, “Benzenesulfonyl-asymmetric ureas and medical uses thereof” (HELSINN HEALTHCARE SA, priority 2016, dated 2019)

Tests used:
Format in all cases: cell-based
[1] = target: T1, recombinant human ghrelin receptor (HEK293/GRLN) (Homo sapiens, UniProt Q92847); assay: Ghrelin inverse agonist potency (EC50) with IP-1 (IP-One HTRF) assay; details: IP-1 assay, HEK293/GRLN; read-out: Activity EC50 (ghrelin inverse agonist potency)
T1 construct: expressed in transfected cells
Method in brief: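 IP-1 accumulation was measured by HTRF (IP1-d2/Tb-cryptate, 620/665 nm read after 1 hour at room temperature) following 1 hour of compound treatment at 37° C. Cells were HEK293 stably expressing human ghrelin receptor, plated a day earlier on Matrigel. Inverse agonist potency was reported as EC50.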

[2] = target: T2, GHSR-1a (HEK293/GHSR1a cell line) (Homo sapiens, UniProt Q92847); assay: Ghrelin agonist potency (EC50) with calcium FLIPR assay; details: HEK293/GHSR1a, read-out: Activity EC50/EMax: EC50 (ghrelin agonist potency)
T2 construct: expressed in transfected cells; host or cells: HEK293/GHSR1a cell line
T2 sequence (Q92847 whole entry): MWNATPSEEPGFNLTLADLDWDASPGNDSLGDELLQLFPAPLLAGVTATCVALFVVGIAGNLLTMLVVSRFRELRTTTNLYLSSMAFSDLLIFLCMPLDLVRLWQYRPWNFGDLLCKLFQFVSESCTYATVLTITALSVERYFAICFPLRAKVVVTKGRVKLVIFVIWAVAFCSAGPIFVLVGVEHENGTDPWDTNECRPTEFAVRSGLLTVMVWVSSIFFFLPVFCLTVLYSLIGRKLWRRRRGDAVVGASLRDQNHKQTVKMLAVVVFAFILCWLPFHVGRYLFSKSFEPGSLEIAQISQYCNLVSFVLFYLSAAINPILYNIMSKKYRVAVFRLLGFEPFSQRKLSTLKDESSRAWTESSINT
Method in brief: (§1)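 Calcium flux was followed 2 min by FLIPR in dye-loaded HEK293/GHSR1a cells. For antagonist IC50, compound and ghrelin (10 nM) were co-added at t=20 sec and inhibition of the ghrelin signal fitted; for agonist EC50, compound alone was added at t=20 sec and dose-response fitted.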

[3] = target: T2, GHSR-1a (HEK293/GHSR1a cell line); assay: Ghrelin antagonist potency (IC50) with calcium FLIPR assay, ghrelin 10 nM; details: HEK293/GHSR1a, ghrelin 10 nM, read-out: Activity IC50 (ghrelin antagonist potency)
Method in brief: as §1

T1 sequence (Q92847 whole entry): as above

Row | SMILES | EC50 [1] | EC50 [2] | IC50 [3]
1 | CC(NC(=O)Nc1ccc(S(=O)(=O)CC2CCC(NCC3CC3)CC2)cc1)c1cccc(Cl)c1Cl (stereo not drawn) [H1371, 1-(4-(((4-((cyclopropylmethyl)amino)cyclohexyl)methyl)sulfonyl)phenyl)-3-(1-(2,3-dichlorophenyl)ethyl)urea] | 231 nM | > 30000 nM | 2440 nM
2 | CCN(CC)C1CCC(CS(=O)(=O)c2ccc(NC(=O)NC(C)c3cccc(Cl)c3Cl)cc2)CC1 (stereo not drawn) [H1372, 1-(1-(2,3-dichlorophenyl)ethyl)-3-(4-(((4-(diethylamino)cyclohexyl)methyl)sulfonyl)phenyl)urea] | 936 nM | > 30000 nM | 18200 nM
3 | CC(NC(=O)Nc1ccc(S(=O)(=O)CC2CCCN(C(C)C)C2)cc1)c1cccc(Cl)c1Cl (stereo not drawn) [H1376, 1-(1-(2,3-dichlorophenyl)ethyl)-3-(4-(((1-isopropylpiperidin-3-yl)methyl)sulfonyl)phenyl)urea] | 631 nM | > 30000 nM | 6890 nM
4 | CC(NC(=O)N(C)c1ccc(S(=O)(=O)Cc2ccc3c(c2)CN(C)C3)cc1)c1ccccc1 (stereo not drawn) [H1377, 1-methyl-1-(4-(((2-methylisoindolin-5-yl)methyl)sulfonyl)phenyl)-3-(1-phenylethyl)urea] | 384 nM | > 30000 nM | 5520 nM
5 | COc1cc2c(cc1CS(=O)(=O)c1ccc(NC(=O)NC(C)c3cccc(Cl)c3Cl)cc1)CCNC2 (stereo not drawn) [H1392, 1-(1-(2,3-dichlorophenyl)ethyl)-3-(4-(((7-methoxy-1,2,3,4-tetrahydroisoquinolin-6-yl)methyl)sulfonyl)phenyl)urea] | 52.6 nM | > 30000 nM | 98.8 nM
6 | CC(NC(=O)Nc1ccc(S(=O)(=O)Cc2cc3c(c(C(F)(F)F)c2)CNCC3)cc1F)c1cccc(Cl)c1Cl (stereo not drawn) [H1400, 1-(1-(2,3-dichlorophenyl)ethyl)-3-(2-fluoro-4-(((8-(trifluoromethyl)-1,2,3,4-tetrahydroisoquinolin-6-yl)methyl)sulfonyl)phenyl)urea] | 15.4 nM | > 30000 nM | 70.5 nM
7 | CC(NC(=O)Nc1ccc(S(=O)(=O)Cc2cc(Cl)c3c(c2)CNC3)cc1)c1ccccc1 (stereo not drawn) [H1405, 1-(4-(((7-chloroisoindolin-5-yl)methyl)sulfonyl)phenyl)-3-(1-phenylethyl)urea] | 90 nM | > 30000 nM | 1860 nM
8 | CC(NC(=O)Nc1ccc(S(=O)(=O)Cc2ccc3c(c2)CNC3)cn1)c1ccccc1 (stereo not drawn) [H1408, 1-(5-((isoindolin-5-ylmethyl)sulfonyl)pyridin-2-yl)-3-(1-phenylethyl)urea] | 36 nM | > 30000 nM | 162 nM
9 | CC(c1ccccc1)N(C)C(=O)Nc1ccc(S(=O)(=O)Cc2ccc3c(c2F)CNC3)cc1 (stereo not drawn) [H1409, 3-(4-(((4-fluoroisoindolin-5-yl)methyl)sulfonyl)phenyl)-1-methyl-1-(1-phenylethyl)urea] | 74.5 nM | > 30000 nM | 282 nM
10 | CC(NC(=O)Nc1ccc(S(=O)(=O)Cc2ccc3c(c2)CNC3)cc1F)c1c(F)cccc1F (stereo not drawn) [H1411, 1-(1-(2,6-difluorophenyl)ethyl)-3-(2-fluoro-4-((isoindolin-5-ylmethyl)sulfonyl)phenyl)urea] | 17.8 nM | > 30000 nM | 124 nM
11 | COc1cc(S(=O)(=O)Cc2ccc3c(c2)CCNC3)ccc1NC(=O)N(C)C(C)c1ccccc1 (stereo not drawn) [H1413, 3-(2-methoxy-4-(((1,2,3,4-tetrahydroisoquinolin-6-yl)methyl)sulfonyl)phenyl)-1-methyl-1-(1-phenylethyl)urea] | 225 nM | > 30000 nM | 681 nM
12 | CC(c1ccccc1)N(C)C(=O)Nc1ccc(S(=O)(=O)Cc2ccc3c(c2)CCNC3)cc1F (stereo not drawn) [H1414, 3-(2-fluoro-4-(((1,2,3,4-tetrahydroisoquinolin-6-yl)methyl)sulfonyl)phenyl)-1-methyl-1-(1-phenylethyl)urea] | 589 nM | > 30000 nM | 2090 nM
13 | CC1Cc2cc(CS(=O)(=O)c3ccc(NC(=O)N(C)Cc4ccccc4)cc3)ccc2CN1 (stereo not drawn) [H1416, 1-benzyl-1-methyl-3-(4-(((3-methyl-1,2,3,4-tetrahydroisoquinolin-6-yl)methyl)sulfonyl)phenyl)urea] | 26.6 nM | > 30000 nM | 1040 nM
14 | CC1c2ccccc2CCN1C(=O)Nc1ccc(S(=O)(=O)Cc2ccc3c(c2)CN(C)C3)cc1 (stereo not drawn) [H1418, 1-methyl-N-(4-(((2-methylisoindolin-5-yl)methyl)sulfonyl)phenyl)-3,4-dihydroisoquinoline-2(1H)-carboxamide] | 69.5 nM | > 30000 nM | 2700 nM
15 | COc1cc(S(=O)(=O)Cc2ccc3c(c2)CCN(C)C3)ccc1NC(=O)N[C@H](C)c1ccc(OC)c(Cl)c1Cl [H1422, (R)-1-(1-(2,3-dichloro-4-methoxyphenyl)ethyl)-3-(2-methoxy-4-(((2-methyl-1,2,3,4-tetrahydroisoquinolin-6-yl)methyl)sulfonyl)phenyl)urea] | 0.7 nM | > 30000 nM | 29.4 nM
16 | COc1ccc([C@@H](C)NC(=O)Nc2ccc(S(=O)(=O)Cc3ccc4c(c3)CCN(C)C4)cc2F)c(Cl)c1Cl [H1423, (R)-1-(1-(2,3-dichloro-4-methoxyphenyl)ethyl)-3-(2-fluoro-4-(((2-methyl-1,2,3,4-tetrahydroisoquinolin-6-yl)methyl)sulfonyl)phenyl)urea] | 3.77 nM | > 30000 nM | 114 nM
17 | COc1cc(S(=O)(=O)Cc2cc(F)c3c(c2)CCNC3)ccc1NC(=O)NC(C)c1cccc(Cl)c1Cl (stereo not drawn) [H1424, 1-(1-(2,3-dichlorophenyl)ethyl)-3-(4-(((8-fluoro-1,2,3,4-tetrahydroisoquinolin-6-yl)methyl)sulfonyl)-2-methoxyphenyl)urea] | 8.9 nM | > 30000 nM | 15.4 nM
18 | CC(NC(=O)Nc1ccc(S(=O)(=O)Cc2ccc(CO)cc2)cc1)c1cccc(Cl)c1Cl (stereo not drawn) [H1430, 1-(1-(2,3-dichlorophenyl)ethyl)-3-(4-((4-(hydroxymethyl)benzyl)sulfonyl)phenyl)urea] | 56.4 nM | > 30000 nM | 2470 nM
19 | COc1cc(S(=O)(=O)Cc2ccc(CO)cc2)ccc1NC(=O)NC(C)c1c(F)cccc1F (stereo not drawn) [H1432, 1-(1-(2,6-difluorophenyl)ethyl)-3-(4-((4-(hydroxymethyl)benzyl)sulfonyl)-2-methoxyphenyl)urea] | 367 nM | > 30000 nM | 5500 nM
20 | COc1cc(S(=O)(=O)Cc2ccc(CO)cc2)ccc1NC(=O)NC(C)c1ccccc1 (stereo not drawn) [H1433, 1-(4-((4-(hydroxymethyl)benzyl)sulfonyl)-2-methoxyphenyl)-3-(1-phenylethyl)urea] | 473 nM | > 30000 nM | 3120 nM
21 | COc1cc(S(=O)(=O)Cc2ccc(CO)cc2)ccc1NC(=O)NC(C)c1cccc(Cl)c1Cl (stereo not drawn) [H1434, 1-(1-(2,3-dichlorophenyl)ethyl)-3-(4-((4-(hydroxymethyl)benzyl)sulfonyl)-2-methoxyphenyl)urea] | 61.2 nM | > 30000 nM | 857 nM
22 | COc1cc(S(=O)(=O)Cc2ccc(CO)cc2)ccc1NC(=O)NC(C)c1ccc(OC)c(Cl)c1Cl (stereo not drawn) [H1435, 1-(1-(2,3-dichloro-4-methoxyphenyl)ethyl)-3-(4-((4-(hydroxymethyl)benzyl)sulfonyl)-2-methoxyphenyl)urea] | > 10000 nM | > 30000 nM | > 30000 nM
23 | COc1cc(S(=O)(=O)Cc2ccc3c(c2)CCN(C)C3)ccc1NC(=O)NC(C)c1c(F)cccc1F (stereo not drawn) [H1436, 1-(1-(2,6-difluorophenyl)ethyl)-3-(2-methoxy-4-(((2-methyl-1,2,3,4-tetrahydroisoquinolin-6-yl)methyl)sulfonyl)phenyl)urea] | 4.3 nM | > 30000 nM | 19.5 nM
24 | COc1cc(S(=O)(=O)Cc2ccc3c(c2)CN(C)C3)ccc1NC(=O)NC(C)c1c(F)cccc1F (stereo not drawn) [H1437, 1-(1-(2,6-difluorophenyl)ethyl)-3-(2-methoxy-4-(((2-methylisoindolin-5-yl)methyl)sulfonyl)phenyl)urea] | 10 nM | > 30000 nM | 24.3 nM
25 | COc1cc(S(=O)(=O)Cc2ccc3c(c2)CN(C)C3)ccc1NC(=O)NC(C)c1ccccc1OC (stereo not drawn) [H1438, 1-(2-methoxy-4-(((2-methylisoindolin-5-yl)methyl)sulfonyl)phenyl)-3-(1-(2-methoxyphenyl)ethyl)urea] | 2.76 nM | > 30000 nM | 12.6 nM
26 | COc1cc(S(=O)(=O)Cc2cc3c(cc2F)CNCC3)ccc1NC(=O)NC(C)c1cccc(Cl)c1Cl (stereo not drawn) [H1439, 1-(1-(2,3-dichlorophenyl)ethyl)-3-(4-(((7-fluoro-1,2,3,4-tetrahydroisoquinolin-6-yl)methyl)sulfonyl)-2-methoxyphenyl)urea] | 14.1 nM | > 30000 nM | 12.4 nM
27 | COc1cc(S(=O)(=O)Cc2ccc3c(c2)CC(C)N(C)C3)ccc1NC(=O)NC(C)c1ccccc1 (stereo not drawn) [H1440, 1-(4-(((2,3-dimethyl-1,2,3,4-tetrahydroisoquinolin-6-yl)methyl)sulfonyl)-2-methoxyphenyl)-3-(1-phenylethyl)urea] | 2.9 nM | > 30000 nM | 4.4 nM
